Assay results published in the supplement of paper PMC10307832.

How the values were obtained:
[1] = compound: Cc1nc(NC(=O)N2CCC[C@H]2C(N)=O)sc1-c1ccnc(C(C)(C)C(F)(F)F)c1 [Alpelisib]; test: relative viability (nuclei count vs DMSO), 5 days (fraction); higher = more cells survive
Summary of the method: (§1)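 Viability was read as treated-well nuclei divided by vehicle-well nuclei, using the median across plates. Lung cancer cell lines in 1536-well plates were kept overnight at 37 °C, pinned with five √10-spaced library-drug doses, and after 5 days were Hoechst-stained, imaged at 4× and counted in MetaXpress. Plates passed only with control CV below 25% and at least one doubling.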

[2] = compound: COc1cccc2cc(-c3nc([C@H]4CC[C@H](C(=O)O)CC4)n4ncnc(N)c34)[nH]c12 [OSI-027]; test: as above
Summary of the method: as §1

UMC-11
relative viability ([1]; 0.04 µM): 0.937 | relative viability ([1]; 0.1265 µM): 0.954 | relative viability ([1]; 0.4 µM): 1.01 | relative viability ([1]; 1.265 µM): 0.956 | relative viability ([1]; 2 µM, anchor plate): 1 | relative viability ([1]; 4 µM): 0.826 | relative viability ([2]; 0.01 µM): 0.913 | relative viability ([2]; 0.03162 µM): 0.916 | relative viability ([2]; 0.1 µM): 0.808 | relative viability ([2]; 0.3162 µM): 0.704 | relative viability ([2]; 0.5 µM, anchor plate): 0.49 | relative viability ([2]; 1 µM): 0.561
